Laboratory results published in the supplement of paper PMC10307832.

Tests used:
Assay in all cases: relative viability (nuclei count vs DMSO), 5 days (fraction); higher = more cells survive
AZD5582 + Bortezomib = compound: C[C@@H](C(=O)N[C@@H](C1CCCCC1)C(=O)N2CCC[C@H]2C(=O)N[C@@H]3[C@@H](CC4=CC=CC=C34)OCC#CC#CCO[C@@H]5CC6=CC=CC=C6[C@@H]5NC(=O)[C@@H]7CCCN7C(=O)[C@H](C8CCCCC8)NC(=O)[C@H](C)NC)NC [AZD5582] + CC(C)C[C@H](NC(=O)[C@H](Cc1ccccc1)NC(=O)c1cnccn1)B(O)O [Bortezomib] (partner 0.002 µM)
Procedure, shortened: (§1)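 Values are medians from duplicate plates. Each reflects relative viability, defined as the nuclei count of treated wells over that of vehicle wells. Lung cancer cell lines in 1536-well plates were pin-tool dosed one day after seeding with one drug alone or with a fixed anchor-drug dose plus five library-drug doses (not always all listed) in √10 steps, then fixed, stained and imaged at 4× after 5 days.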

AZD5582 + Dasatinib = compound: C[C@@H](C(=O)N[C@@H](C1CCCCC1)C(=O)N2CCC[C@H]2C(=O)N[C@@H]3[C@@H](CC4=CC=CC=C34)OCC#CC#CCO[C@@H]5CC6=CC=CC=C6[C@@H]5NC(=O)[C@@H]7CCCN7C(=O)[C@H](C8CCCCC8)NC(=O)[C@H](C)NC)NC [AZD5582] + Cc1nc(Nc2ncc(C(=O)Nc3c(C)cccc3Cl)s2)cc(N2CCN(CCO)CC2)n1 [Dasatinib] (partner 0.075 µM)
Procedure, shortened: as §1

[1] = compound: Cn1nnc2c(C(N)=O)ncn2c1=O [Temozolomide] + CC(=O)Nc1cccc(-n2c(=O)n(C3CC3)c(=O)c3c(Nc4ccc(I)cc4F)n(C)c(=O)c(C)c32)c1 [Trametinib] (partner 0.02 µM)
Procedure, shortened: as §1

Temozolomide + Foretinib = compound: Cn1nnc2c(C(N)=O)ncn2c1=O [Temozolomide] + COc1cc2c(Oc3ccc(NC(=O)C4(C(=O)Nc5ccc(F)cc5)CC4)cc3F)ccnc2cc1OCCCN1CCOCC1 [Foretinib] (partner 0.25 µM)
Procedure, shortened: as §1

Cell Line | relative viability (AZD5582 + Bortezomib; first compound 0.001581 µM) | relative viability (AZD5582 + Bortezomib; first compound 0.005 µM) | relative viability (AZD5582 + Bortezomib; first compound 0.01581 µM) | relative viability (AZD5582 + Bortezomib; first compound 0.05 µM) | relative viability (AZD5582 + Dasatinib; first compound 0.001581 µM) | relative viability (AZD5582 + Dasatinib; first compound 0.005 µM) | relative viability (AZD5582 + Dasatinib; first compound 0.01581 µM) | relative viability (AZD5582 + Dasatinib; first compound 0.05 µM) | relative viability ([1]; first compound 0.2 µM) | relative viability ([1]; first compound 0.6325 µM) | relative viability ([1]; first compound 2 µM) | relative viability ([1]; first compound 6.325 µM) | relative viability ([1]; first compound 20 µM) | relative viability (Temozolomide + Foretinib; first compound 0.2 µM) | relative viability (Temozolomide + Foretinib; first compound 0.6325 µM) | relative viability (Temozolomide + Foretinib; first compound 2 µM) | relative viability (Temozolomide + Foretinib; first compound 6.325 µM) | relative viability (Temozolomide + Foretinib; first compound 20 µM)
NCI-H650 | 0.757 | 0.654 | 0.57 | 0.582 | 0.447 | 0.418 | 0.305 | 0.308 | 0.954 | 1.02 | 1.38 | 0.869 | 1.01 | 0.898 | 0.991 | 1.06 | 1 | 1.07
LC-2-ad | 1.05 | 1.14 | 0.938 | 1.04 | 0.629 | 0.774 | 0.461 | 0.531 | 0.935 | 0.926 | 0.912 | 0.895 | 0.859 | 0.838 | 1 | 0.971 | 0.898 | 0.765
NCI-H1299 | 1.01 | 1.08 | 1.04 | 0.99 | – | – | – | – | – | – | – | – | – | 1.15 | 1.12 | 1.09 | 1.1 | 1.12
NCI-H3122 | 1.03 | 0.954 | 1.07 | 0.729 | 0.729 | 0.707 | 0.802 | 0.185 | 0.222 | 0.291 | 0.246 | 0.251 | 0.242 | 0.915 | 0.924 | 1.07 | 1 | 0.946
EBC-1 | 0.434 | 0.39 | 0.528 | 0.389 | – | – | – | – | – | – | – | – | – | 0.11 | 0.1 | 0.0982 | 0.111 | 0.117
NCI-H441 | 0.379 | 0.495 | 0.47 | 0.418 | 0.591 | 0.726 | – | 0.508 | 0.543 | 0.642 | 0.478 | 0.425 | 0.459 | 1.12 | 0.937 | 1.15 | 1.02 | 1.07
LOU-NH91 | 0.45 | 0.509 | 0.489 | 0.443 | 0.553 | 0.565 | 0.468 | 0.657 | 0.731 | 0.806 | 0.793 | 0.806 | 0.7 | 0.674 | 0.913 | 0.941 | 0.568 | 0.569
LXF-289 | 0.985 | 1.03 | 0.987 | 1.05 | 0.228 | 0.236 | 0.154 | 0.13 | 0.693 | 0.693 | 0.683 | 0.653 | 0.667 | 0.978 | 0.998 | 0.985 | 0.964 | 0.908
HCC-827 | 0.974 | 1.05 | 0.901 | 1.07 | 0.342 | 0.218 | 0.289 | 0.411 | 0.56 | 0.593 | 0.286 | 0.532 | 0.136 | 1.14 | 1.01 | 0.994 | 0.894 | 0.153
RERF-LC-KJ | – | 0.42 | 1.11 | 0.654 | – | – | 0.723 | 0.696 | 0.788 | 0.815 | 0.763 | 0.845 | 0.826 | 0.888 | 0.928 | 0.875 | 0.936 | 0.901
NCI-H2228 | 0.857 | 1.34 | 1.36 | 0.439 | 0.437 | 0.506 | 0.478 | 0.139 | 0.286 | 0.617 | 0.432 | 0.459 | 0.537 | 1.05 | 1.05 | 0.854 | 0.691 | 0.961
SW 1573 | 1.3 | 0.996 | 1.04 | 1.43 | 0.56 | 0.732 | 0.573 | 0.566 | 0.688 | 0.504 | 0.56 | 0.583 | 0.474 | 0.861 | 0.915 | 0.79 | 0.725 | 0.938
NCI-H1792 | 0.92 | 1.02 | 0.892 | 1.22 | 0.861 | 0.911 | 0.819 | 1.03 | 0.389 | 0.441 | 0.471 | 0.317 | 0.517 | – | – | – | – | –
ChaGo-K-1 | 0.988 | 0.985 | 0.93 | 0.982 | 0.579 | 0.669 | 0.596 | 0.488 | 0.959 | 0.87 | 0.967 | 0.9 | 0.887 | 0.993 | 0.886 | 0.992 | 0.98 | 0.975
NCI-H1650 | 0.166 | 0.192 | 0.188 | 0.169 | 0.293 | 0.352 | 0.341 | 0.344 | 0.618 | 0.654 | 0.611 | 0.642 | 0.39 | 1.14 | 1.07 | 1.02 | 0.872 | 0.766
HARA | 1.09 | 1.11 | 1.06 | 1.07 | 0.26 | 0.299 | 0.294 | 0.124 | 0.717 | 0.601 | 0.886 | 0.89 | 0.441 | 0.8 | 0.991 | 1.05 | 0.671 | 0.641
